Laboratory results from ChEMBL document CHEMBL1151192, “Phorbasterones A-D, cytotoxic nor-ring A steroids from the sponge Phorbas amaranthus” (J Nat Prod, 2004).
In brackets after ≈: the same amount, converted by molar mass.

system: HCT-116; experiment: Cytotoxicity against human HCT116 cells after 72 hrs by MTS assay; format: functional, cell-based; conditions: HCT-116, 72 h

Row | SMILES | IC50 [µg/mL]
1 | CCC(/C=C/[C@@H](C)[C@H]1CC[C@H]2[C@@H]3CC=C4C(=O)[C@](O)(C(=O)OC)C[C@]4(C)[C@H]3CC[C@]12C)C(C)C (mixture of isomers) [PHORBASTERONE C] | 1
2 | CCC(CC[C@@H](C)[C@H]1CC[C@H]2[C@@H]3CC=C4C(=O)[C@](O)(C(=O)OC)C[C@]4(C)[C@H]3CC[C@]12C)C(C)C (mixture of isomers) [PHORBASTERONE D] | 1
3 | COC(=O)[C@]1(O)C[C@@]2(C)C(=CC[C@H]3[C@@H]4CC[C@H]([C@H](C)/C=C/C(C)C(C)C)[C@@]4(C)CC[C@@H]32)C1=O (some centres undefined) [PHORBASTERONE A] | 1 (≈ 2.19 µM)
4 | COC(=O)[C@]1(O)C[C@@]2(C)C(=CC[C@H]3[C@@H]4CC[C@H]([C@H](C)CCCC(C)C)[C@@]4(C)CC[C@@H]32)C1=O [PHORBASTERONE B] | 1 (≈ 2.25 µM)
